Assay results from patent US8618167B2, “Methods of attenuating cognitive deficits with sulfonyl fluorides” (priority 2001, dated 2013).

Experiments:
[1] = tested on: ischemia-induced loss of hippocampal pyramidal cells and acetylcholine; conditions: pretreatment; cited from earlier work
acetylcholinesterase = biological target: T1, acetylcholinesterase (Rattus norvegicus, UniProt P37136); assay: Control acetylcholinesterase assays of brain after MSF treatment (Ellman spectrophotometric method); type: in vivo; conditions: same regimen; dissected brain part
T1 construct: from tissue; host or cells: rat brain (whole brain, hippocampus, cortex, striatum/nucleus accumbens)
T1 sequence (P37136 32-614): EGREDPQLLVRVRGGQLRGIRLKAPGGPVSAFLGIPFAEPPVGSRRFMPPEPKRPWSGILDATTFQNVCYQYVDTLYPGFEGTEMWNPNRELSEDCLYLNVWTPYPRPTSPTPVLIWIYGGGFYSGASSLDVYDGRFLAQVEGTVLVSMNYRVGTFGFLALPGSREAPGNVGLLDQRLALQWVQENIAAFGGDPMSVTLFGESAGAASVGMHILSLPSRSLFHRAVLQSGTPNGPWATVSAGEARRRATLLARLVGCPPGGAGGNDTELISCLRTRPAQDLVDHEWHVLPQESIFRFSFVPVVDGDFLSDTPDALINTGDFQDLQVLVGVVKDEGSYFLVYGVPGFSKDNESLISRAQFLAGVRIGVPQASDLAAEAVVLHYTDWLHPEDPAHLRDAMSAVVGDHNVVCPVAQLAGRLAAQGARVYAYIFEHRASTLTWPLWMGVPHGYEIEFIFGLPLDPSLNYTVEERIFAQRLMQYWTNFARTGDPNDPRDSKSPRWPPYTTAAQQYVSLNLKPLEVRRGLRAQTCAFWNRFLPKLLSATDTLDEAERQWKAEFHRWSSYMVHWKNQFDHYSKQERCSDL
Method: Control Acetylcholinesterase Assays. Two additional groups of normal control (non-ischemic) rats were treated with MSF (N=4) or peanut oil vehicle (N=4) in accordance with the exact procedures used with the other groups in order to estimate the level of acetylcholinesterase inhibition produced. At the end of the study, the rats were sacrificed and acetylcholinesterase assays were conducted at 25° C. according to the spectrophotometric method (Ellman et al., 1961) with minor modifications (pH set at 7.4 and using 1 mM acetyl-β-methyl-thiocholine iodide as substrate).
Drugs. For study 1, animals received ip injections of either MSF (1 mg/kg at 24 and 48 hrs post-MCAo and 0.3 mg/kg thereafter every other day) or the vehicle, peanut oil, for four weeks. Each animal received 0.5 ml of the solution. For study 2, animals received 1 mg/kg at 24 and 48 hrs post-MCAo and 0, 0.15, 0.30 or 0.6 mg/kg of MSF in peanut oil using the same regimen mentioned above. For study 3, animals were introduced to the same regimen as in study 1, but thereafter received peanut oil every other day from four weeks up to eight weeks post-MCAo.

[2] = tested on: ischemic (MCAo) Sprague-Dawley rats; assay: Elevated body swing test (EBST), motor asymmetry after MCAo; type: in vivo, rat; conditions: 4 wks after MCAo, MSF 1 mg/kg at 24 and 48 hrs then 0.3 mg/kg every other day i.p., mean±S.E.M., vehicle 84.8±10, p>0.05
[3] = tested on: ischemic (MCAo) Sprague-Dawley rats; assay: Step-down passive avoidance test after MCAo; type: in vivo, rat
Text: Experimental Protocol. A total of 48 eight-week-old, male, Sprague-Dawley rats weighing about 250 g served as subjects in the present study. All animals were free of virus antibody. A 3-day acclimation period was allowed prior to using the animals. Animals were kept under a 12-12 hr light/dark cycle and allowed free access to food and water before and after surgical procedures. All experimental procedures followed UTEP IACUC guidelines for use of animals in research to minimize discomfort in the animals during surgery and in the recovery period. […] In study one (n=24), the 0.3 mg/kg dose of MSF, which was previously reported as efficacious in ameliorating cognitive deficits in animals, was used to initially provide the putative drug's effects on ischemic animals. Studies two (dose response effects of MSF; n=16) and three (withdrawal of MSF; n=8) were conducted to further characterize the direct neurobehavioral effects of MSF. […]
The passive avoidance test followed the procedures described in detail elsewhere (Borlongan et al., 1998a; 1998b). […] Acquisition of the task was measured in terms of the amount of time it took the rat to remain on the platform continuously for 3 min. Twenty four hrs later, a retention test was conducted by placing the rat on the platform exactly as before and recording the latency to step-down measured to a maximum of 3 min. […]

[4] = tested on: ischemic (MCAo) Sprague-Dawley rats; conditions: rat, in vivo
[5] = tested on: septal ChAT immunoreactivity; assay: Choline acetyltransferase (ChAT) immunohistochemistry of the septum; type: in vivo, rat
Method: Choline Acetyltransferase (ChAT) Immunohistochemistry. Following the behavioral test at 4 wks post-ischemia, randomly selected animals (n=4 per group) were deeply anesthetized and perfused intracardially with 150 ml saline followed by 150 ml of 4% paraformaldehyde. The brains were post-fixed overnight in 4% paraformaldehyde and subsequently immersed in 20% sucrose in 4% paraformaldehyde and stored at 8° C. until sectioning. A vibratome (Vibroslice, Fla.) was used to cut the brain (40 μm sections). Ten serial brain sections that included the septal region (+1.4 to +0.2 mm from the bregma) were processed for ChAT immunohistochemistry. Sections were pre-incubated in 5% blocking serum (normal goat, Jackson ImmunoResearch Laboratories, PA) in 0.1% Triton-X in 0.1 M NaPBS for 60 min, followed by incubation in the primary ChAT antibody (Boehringer Mannheim Biochemical, IN; 1:10 dilution in 0.1 M phosphate-buffered saline, NaPBS) at room temperature overnight. The sections were reacted with the appropriate biotinylated secondary antibody (1:2000) for 45 min, followed by an avidin-biotin-peroxidase complex system (ABC Elite Vectastain Kit, Vector, Burlingame, Calif.) for 45 min. Finally, the Vector VIP Kit (Vector, Burlingame, Calif.) was used to visualize the reaction product. The sections were mounted on gelatin-coated glass slides, dried overnight, dehydrated in increasing alcohol concentrations, and cover-slipped using Permount (Fisher Scientific, Pittsburgh, Pa.) mounting solution. Serial sections were digitized using a PC-based Image Tools computer program. To determine the ChAT alterations in the septum, comparisons of mean total number (average counts from ten brain sections per animal) of septal ChAT-immunoreactive (ir) neurons from MSF- and vehicle-treated ischemic animals were conducted. Individual counts of ChAT-ir neurons were made using the following criteria: heavily stained nuclei (HN), pale stained nuclei (PN) and presence of elaborate processes (P). […] In addition, a 5-point semi-quantitative scale was used to assess the intensity of ChAT immunoreactivity. […]

[6] = biological target: acetylcholinesterase in comparison to butyrylcholinesterase (Homo sapiens, UniProt P22303); conditions: cited from earlier work
SDAT patients = conditions: cited from earlier work
[7] = tested on: middle-aged and older rats; conditions: chronic MSF treatment; cited from earlier work
[8] = tested on: brain acetylcholinesterase; conditions: cited from earlier work
brain AChE = biological target: T2, brain AChE (Rattus norvegicus, UniProt P37136); conditions: cited from earlier work
T2 sequence (P37136 32-614): T1 sequence (P37136 32-614)

[9] = chronic MSF 0.22 mg/kg three times per week
[10] = single systemic injection of 1.5 mg/kg MSF

Chain of acetylcholinesterase in comparison to butyrylcholinesterase (P22303 32-614): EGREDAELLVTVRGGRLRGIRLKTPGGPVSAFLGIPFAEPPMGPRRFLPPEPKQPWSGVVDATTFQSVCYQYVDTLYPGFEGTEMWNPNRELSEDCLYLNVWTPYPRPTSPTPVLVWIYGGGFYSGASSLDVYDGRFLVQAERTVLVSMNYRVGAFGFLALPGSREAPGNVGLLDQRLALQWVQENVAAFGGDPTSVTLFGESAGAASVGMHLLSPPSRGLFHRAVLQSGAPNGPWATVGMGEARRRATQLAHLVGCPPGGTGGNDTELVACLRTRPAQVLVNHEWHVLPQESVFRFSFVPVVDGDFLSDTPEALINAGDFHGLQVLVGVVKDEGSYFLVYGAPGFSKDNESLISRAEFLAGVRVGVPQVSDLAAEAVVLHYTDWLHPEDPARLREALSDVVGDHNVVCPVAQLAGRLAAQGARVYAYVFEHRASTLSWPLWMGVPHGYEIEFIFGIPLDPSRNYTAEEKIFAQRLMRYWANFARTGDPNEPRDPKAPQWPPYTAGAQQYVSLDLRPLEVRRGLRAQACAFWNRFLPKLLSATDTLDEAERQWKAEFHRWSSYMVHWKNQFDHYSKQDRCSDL

CCN(C)C(=O)Oc1cccc([C@H](C)N(C)C)c1 [ENA-173]
levels of hippocampal acetylcholine and ischemia-induced loss of hippocampal pyramidal cells [1]: preserve the levels of hippocampal acetylcholine and to protect against ischemia-induced loss of pyramidal cells

CS(=O)(=O)F [MSF, Methanesulfonyl fluoride]
acetylcholinesterase inhibition in cortex (acetylcholinesterase): 85.9%
acetylcholinesterase inhibition in hippocampus (acetylcholinesterase): 88.5%
acetylcholinesterase inhibition in striatum/nucleus accumbens (acetylcholinesterase): 95.0%
biased swing activity (EBST) [2]: 87.7±8%
passive avoidance: time to acquire the task ([3]; 4 wks after MCAo, same regimen, mean±S.E.M., vehicle 398±62, p<0.05): 255 ± 36 s
passive avoidance: retention of the task (step down latency) ([3]; retention test 24 hrs after acquisition, max 3 min, vehicle 79±26, p<0.05): 145 ± 18 s
ischemia-induced apoptotic cell death [4]: did not block ischemia-induced apoptotic cell death
mean volume of infarcted tissue [4]: 78.1±14.2 mm^3
intensity of staining of ChAT-ir neurons in lateral and medial septum ([5]; compared to vehicle-treated ischemic animals): more intense staining of ChAT-ir neurons
increment in mean total number of HN+P ChAT-ir cells vs vehicle-treated ischemic animals ([5]; septum, 4 wks post-ischemia, heavily stained nuclei with processes, p<0.05): 10%-15%
increment in mean total number of HN ChAT-ir cells vs vehicle-treated ischemic animals ([5]; septum, 4 wks post-ischemia, heavily stained nuclei, p<0.05): 10%-15%
selectivity as inhibitor of acetylcholinesterase in comparison to butyrylcholinesterase [6]: high selectivity
persistence of cognition-enhancing effects after withdrawal (SDAT patients; SDAT patients): persisted up to eight weeks after withdrawal of the drug
cognitive performance of SDAT patients (SDAT patients; double-blind, placebo-controlled study): significant clinical improvements
acquisition of one-trial per day discriminative reward learning task [7]: enhance the acquisition
toxicity at accumulated brain acetylcholinesterase inhibition ([8]; at up to 80-90% brain inhibition): without toxicity
inhibition of brain acetylcholinesterase that can be accumulated ([8]; relatively small doses over a long period of time, minimum inhibition of peripheral enzyme): 80-90%
decrement in brain AChE activity (brain AChE; [9]): about 50%
liver damage (brain AChE; [9]): no liver damage
locomotor side effects (brain AChE; [9]): without discernable locomotor side effects
behavioral alterations (brain AChE; [10]): no observable behavioral alterations
reduction of brain AChE activity (brain AChE; [10]): 70%

COP(=O)(OC)C(O)C(Cl)(Cl)Cl (stereo not drawn) [metrifonate, reference compound]
selectivity as inhibitor of acetylcholinesterase in comparison to butyrylcholinesterase [6]: do not show this high degree of selectivity
